The values that follow come from patent US20190375708A1 (VenatoRx Pharmaceuticals, Inc., priority 2018, published 2019).

Series [1] has as its system HBV replication in HepAD38 cells. Nature of the series: Anti-HBV replication assay in HepAD38 cells (QPCR of extracellular HBV DNA). It is filed as cell-based, HBV (genotype D, serotype ayw). Particulars: Hepatitis B virus, 168 h, 7 days incubation, extracellular HBV DNA by QPCR, read-out: Anti-HBV EC50. The protocol:
The anti-HBV activity of the Capsid Assembly Modulators (CAMs) was evaluated in a cell based assay utilizing the human hepatoma cell line HepAD38 (Ladner, S K., et al., 1998). HepAD38 cells were derived from the parental line, HepG2, that were stably transfected with a construct containing an HBV genome (genotype D, serotype ayw) under the control of a tetracycline repressible CMV promoter. Upon removal of tetracycline, viral pre-genomic RNA (pgRNA) and mRNAs are expressed and infectious viral particles are assembled and secreted into the culture medium providing a reliable, robust system to measure multiple steps of the HBV life cycle. Disruption of capsid formation results in reduced levels of DNA-containing virus particles that are released into the culture supernatant. To quantify the effect of CAMs on HBV replication, we developed a sensitive QPCR-based assay that measures extracellular HBV DNA levels upon treatment of HepAD38 cells with various concentrations of test compounds.
HepAD38 cells were maintained in DMEM/F12 medium containing 10% FBS, 400 μg/mL G418 and 0.3 μg/mL tetracycline (tet+ media) to maintain repression of HBV replication. To evaluate each compound, HepAD38 cells were seeded into 24-well collagen coated culture plates (Corning BioCoat) at a density of 200,000 cells per well in 1 mL of medium without tetracycline (tet-media) and allowed to adhere overnight at 37° C., 5% CO2 in a humidified incubator. The following day, media was refreshed and a dose range of each compound was prepared by performing 1 log10 serial dilutions in 100% DMSO at 200× the desired assay concentration. Dilutions were then added to the cells resulting in a final dose range of 1 μM to 10 μM and the plates were returned to the incubator. Following 7 days of incubation, culture supernatants were harvested and HBV DNA levels were evaluated by QPCR and compared to the vehicle treated control wells (i.e. DMSO alone).
To quantify HBV DNA levels, cell culture supernatants were diluted 1:10 in sterile, nuclease-free water (Gibco). The diluted supernatants were subsequently added to a PCR master mix containing 1× Roche Light Cycler Master Mix, 0.5 μM forward primer, 0.5 μM reverse primer (Fwd: 5′-[…] (SEQ ID NO 1); Rev: 5′-[…] (SEQ ID NO 2)), 0.2 μM Roche Universal Probe Library Probe 25. The volume was brought to 20 μL with nuclease-free water and amplification of the HBV target sequence was performed using a Roche LightCycler 480 QPCR instrument. PCR extended out to 45 cycles with each cycle consisting of a denaturation step at 95° C. for 10 sec., followed by an annealing step at 60° C. for 10 sec. and a brief extension step at 72° C. for 1 sec.
Extracellular HBV DNA levels, expressed in copies/mL, were determined by comparison to a standard curve (10^2-10^9 copies/mL) using the Roche LightCycler analysis software. These values were subsequently converted to percent inhibition of HBV replication by dividing the HBV DNA levels in the experimental samples with those obtained from the vehicle control (˜1-2×10^5 copies/mL). Potency, expressed as an EC50 (the effective concentration required to inhibit 50% of HBV replication), was calculated from the dose-response curve using a 4-parameter non-linear regression analysis (GraphPad Prism). The nucleoside analog inhibitor entecavir was used as a positive control to validate each assay run. The EC50 value of entecavir in the HepAD38 assay was 0.5 nM, as previously reported in the literature.

A short description of series [2]: In vitro cytotoxicity assay (MTT cell viability) in HepG2 cells. Type of series: cell-based, human. To be noted: human. As to the method:
To evaluate antiviral selectivity, the cytotoxic activity of each compound was determined using a standard cell viability assay performed on the parental HepG2 cell line. Cell viability was determined by measuring the conversion of 3-(4,5-dimethylthiazol-2-yl)-2,5-diphenyltetrazolium bromide (MTT) to the insoluble formazan salt crystal that occurs in live cells. Briefly, HepG2 cells were seeded in 96-well plates at a density of 20,000 cells per well in EMEM+10% FBS (complete growth medium) and allowed to adhere overnight in a 37° C., 5% CO2 humidified incubator. The next day, test agents were prepared by performing 8 half-log10 serial dilutions in 100% DMSO at 200× the final desired concentration in the assay. Compounds were tested over a range of concentrations from 30 μM to 1.0 nM in the assay. HepG2 cells were incubated in the presence of various concentrations of CAMs for 7 days in a 37° C., 5% CO2 humidified incubator. At the completion of the 7-day incubation period, MTT reagent was added to each well and the mixture was incubated for an additional 3-4 hours. At the completion of the incubation period, all wells were aspirated to remove the culture medium. The formazan crystals were solubilized from the cell monolayers with 100% DMSO. Plates were briefly mixed on an orbital shaker and absorbance was measured at 492 nm using a Perkin-Elmer EnVision multi-label plate reader. All absorbance values were converted to a percentage of the signal obtained from the vehicle treated controls. Absorbance values at 492 nm are directly proportional to the number of viable cells present in the sample. A CC50 value (cytotoxic concentration that results in loss of 50% cell viability) was calculated from the dose-response curve by 4-parameter, non-linear regression analysis using the GraphPad Prism software. The positive control compound, staurosporine, reduced the viability of HepG2 cells in a dose-dependent manner (CC50=100 nM).

`Cc1c(C(=O)Nc2ccc(F)c(Cl)c2)c2n(c1C(=O)C(=O)N[C@H]1COC[C@@H]1O)CCCC2` [Example 450, N-(3-chloro-4-fluorophenyl)-3-(2-(((3S,4R)-4-hydroxytetrahydrofuran-3-yl)amino)-2-oxoacetyl)-2-methyl-5,6,7,8-tetrahydroindolizine-1-carboxamide]: the EC50 in series [1] lay in the range of 0.05 to 0.499 µM. For the same compound, the CC50 at 7 days in series [2] was over 30 µM.
Taken in the same sequence, the figures for `O=C(N[C@H]1CCC[C@H]1O)C(=O)c1c(Cl)c(C(=O)Nc2ccc(F)c(F)c2)c2n1CCC2` [Example 571, 6-chloro-N-(3,4-difluorophenyl)-5-(2-(((1S,2R)-2-hydroxycyclopentyl)amino)-2-oxoacetyl)-2,3-dihydro-1H-pyrrolizine-7-carboxamide] were 0.05 to 0.499 µM and over 30 µM.
On to `Cc1nc2c(s1)CCCC2NC(=O)C(=O)c1c(C)c(C(=O)Nc2ccc(F)c(C)c2)c(C)n1C` (centres unmarked) [Example 625, N-(4-fluoro-3-methylphenyl)-1,2,4-trimethyl-5-(2-((2-methyl-4,5,6,7-tetrahydrobenzo[d]thiazol-4-yl)amino)-2-oxoacetyl)-1H-pyrrole-3-carboxamide], for which, in series [1], the EC50 was under 0.05 µM. This compound also returned a CC50 at 7 days in series [2] of over 30 µM.
For `O=C(NC1(CO)CC1)C(=O)c1c(Cl)c(C(=O)Nc2ccc(F)c(F)c2)c2n1CCCC2` [Example 502, 2-chloro-N-(3,4-difluorophenyl)-3-(2-((1-(hydroxymethyl)cyclopropyl)amino)-2-oxoacetyl)-5,6,7,8-tetrahydroindolizine-1-carboxamide], in series [1], the EC50 is 0.05 to 0.499 µM. Besides, the CC50 at 7 days in series [2] was over 30 µM.
On the same counts, the results for `Cc1cc(NC(=O)c2c(C)c(C(=O)C(=O)NCC(C)(C)C)n(C)c2C)ccc1F` [Example 64, N-(4-fluoro-3-methylphenyl)-1,2,4-trimethyl-5-(2-(neopentylamino)-2-oxoacetyl)-1H-pyrrole-3-carboxamide] are under 0.05 µM and 5 to 30 µM.
On the same counts, the results for `Cc1c(C(=O)Nc2ccc(F)nc2)c(C)n(C)c1C(=O)C(=O)NC(C)(C)C(F)(F)F` [Example 121, N-(6-fluoropyridin-3-yl)-1,2,4-trimethyl-5-(2-oxo-2-((1,1,1-trifluoro-2-methylpropan-2-yl)amino)acetyl)-1H-pyrrole-3-carboxamide] are under 0.05 µM and over 30 µM.
On the same counts, the results for `Cc1cc(NC(=O)c2c(C)c(C(=O)C(=O)N3C4CCCC3CC(=O)C4)n(C)c2C)cnc1F` [Example 193, N-(6-fluoro-5-methylpyridin-3-yl)-1,2,4-trimethyl-5-(2-oxo-2-(3-oxo-9-azabicyclo[3.3.1]nonan-9-yl)acetyl)-1H-pyrrole-3-carboxamide] are over 1 µM and over 30 µM.
`Cc1cc(NC(=O)c2c(C)c(C(=O)C(=O)NC(C)(C)CO)n(C)c2C)cnc1F` [Example 161, N-(6-fluoro-5-methylpyridin-3-yl)-5-(2-((1-hydroxy-2-methylpropan-2-yl)amino)-2-oxoacetyl)-1,2,4-trimethyl-1H-pyrrole-3-carboxamide]: the EC50 in series [1] is under 0.05 µM. In addition, in series [2], the CC50 at 7 days is over 30 µM.
Taken in the same sequence, the figures for `CC(=O)N1CCC(C)(NC(=O)C(=O)c2c(C)c(C(=O)Nc3ccc(F)c(C)c3)c(C)n2C)CC1` [Example 612, 5-(2-((1-acetyl-4-methylpiperidin-4-yl)amino)-2-oxoacetyl)-N-(4-fluoro-3-methylphenyl)-1,2,4-trimethyl-1H-pyrrole-3-carboxamide] were under 0.05 µM and over 30 µM.
Taken in the same sequence, the figures for `CC(C)(CO)NC(=O)C(=O)c1c(Cl)c(C(=O)Nc2ccc(F)c(F)c2)c2n1CCCC2` [Example 492, 2-chloro-N-(3,4-difluorophenyl)-3-(2-((1-hydroxy-2-methylpropan-2-yl)amino)-2-oxoacetyl)-5,6,7,8-tetrahydroindolizine-1-carboxamide] were under 0.05 µM and 5 to 30 µM.
On to `Cc1cc(NC(=O)c2c(C)c(C(=O)C(=O)NC3CCNCC3)n(C)c2C)ccc1F` [Example 233, N-(4-fluoro-3-methylphenyl)-1,2,4-trimethyl-5-(2-oxo-2-(piperidin-4-ylamino)acetyl)-1H-pyrrole-3-carboxamide], for which the EC50 in series [1] was 0.05 to 0.499 µM. The same compound returned a CC50 at 7 days in series [2] of over 30 µM.
Regarding `Cc1cc(NC(=O)c2c(C)c(C(=O)C(=O)NC3(C)CC[C@@H](O)[C@@H](O)C3)n(C)c2C)ccc1F` (stereo partly drawn) [Example 702, 5-(2-(((3S,4R)-3,4-dihydroxy-1-methylcyclohexyl)amino)-2-oxoacetyl)-N-(4-fluoro-3-methylphenyl)-1,2,4-trimethyl-1H-pyrrole-3-carboxamide], in series [1], the EC50 is under 0.05 µM. In series [2], this compound yielded a CC50 at 7 days of over 30 µM.
Turning to `CC[C@H](C)NC(=O)C(=O)c1c(Cl)c(C(=O)Nc2cnc(F)c(C)c2)c2n1CCCC2` [Example 729, (S)-3-(2-(sec-butylamino)-2-oxoacetyl)-2-chloro-N-(6-fluoro-5-methylpyridin-3-yl)-5,6,7,8-tetrahydroindolizine-1-carboxamide], the EC50 in series [1] fell in the range of 0.05 to 0.499 µM. The CC50 at 7 days in series [2] was over 30 µM.
For the compound `Cc1cc(NC(=O)c2c(C)c(C(=O)C(=O)NC34CC5CC(CC3C5)C4)n(C)c2C)cnc1F` [Example 113, N-(6-fluoro-5-methylpyridin-3-yl)-5-(2-(((2R,3as,5S,6as)-hexahydro-2,5-methanopentalen-3a(1H)-yl)amino)-2-oxoacetyl)-1,2,4-trimethyl-1H-pyrrole-3-carboxamide], the EC50 in series [1] is under 0.05 µM. The compound also registered a CC50 at 7 days in series [2] of over 30 µM.
On the same counts, the results for `Cc1cc(NC(=O)c2c(C)c(C(=O)C(=O)N[C@@H]3CCc4nc(N)sc4C3)n(C)c2C)ccc1F` [Example 76, (R)-5-(2-((2-amino-4,5,6,7-tetrahydrobenzo[d]thiazol-6-yl)amino)-2-oxoacetyl)-N-(4-fluoro-3-methylphenyl)-1,2,4-trimethyl-1H-pyrrole-3-carboxamide] are under 0.05 µM and 5 to 30 µM.
Taken in the same sequence, the figures for `Cc1cc(NC(=O)c2c(C)c(C(=O)C(=O)N[C@@H](C)C(F)(F)F)n3c2CCCC3)cnc1F` [Example 470, (S)-N-(6-fluoro-5-methylpyridin-3-yl)-2-methyl-3-(2-oxo-2-((1,1,1-trifluoropropan-2-yl)amino)acetyl)-5,6,7,8-tetrahydroindolizine--1 carboxamide] were 0.5 to 1 µM and 5 to 30 µM.
